# According to PMC9681850, “Structural basis of synthetic agonist activation of the nuclear receptor REV-ERB” (Nature Communications, 2022):
# Several values for one entry are separate records, joined by “and”; a condition that tells them apart may be missing. Identical values can stand only once.
# Key:
# HepG2 cells = assay: cell viability by crystal violet staining; assay type: cell-based, human; settings: for cell viability (Fig 2a source data): crystal violet, normalized to DMSO, single replicates
# Procedure: (§1) Cellular viability was tested in two cell types, human hepatocarcinoma HepG2 cells and proliferating C2C12 mouse myoblast cells.
# (§2) Data are presented as mean ± SEM. Source data are available as a Source Data file.
# (§3) The human hepatocellular carcinoma cell line, HepG2 cells (ATCC HB-8065), were cultured in 10% FBS 1% L-Glu MEM at 37 °C in a humidified atmosphere of 5% CO2. Prior to RNA extraction cells were treated with either DMSO or REV-ERB agonist for 24 h. The C2C12 proliferating mouse myoblast cells (ATCC, CRL-1772) were cultured in 10% FBS DMEM at 37 °C in a humidified atmosphere of 5% CO2. Prior to RNA extraction cells were treated with either DMSO or REV-ERB agonist for 24 h. […]
# (§4) […] Media was removed, and cells were incubated with 0.5% crystal violet solution for 20 min at room temperature with mild agitation. Cells were washed four times with tap water before being air drying overnight. Cells were incubated in methanol for 20 min with mild agitation. Absorbance was read at 570 nm, and readings were normalized to vehicle (DMSO) treated cells.
# BMAL1 in HepG2 cells = assay: expression of BMAL1 by qPCR; assay type: cell-based, human; design: key: Bmal1 expression normalized to Ppia; settings: 5 μM, 24 h, single replicates (n = 4)
# Text: We next determined whether STL1267 can regulate characterized REV-ERB modulated genes in cell lines expressing REV-ERB naturally. Five micromolar doses of both drugs were used in cell-based experiments from this point on. REV-ERB is an established component of the core molecular clock repressing the expression of core clock gene Bmal1[6],[27] as well as others[28],[29]. […] In skeletal muscle, REV-ERB agonism increases the expression of a wide variety of genes important in mitochondrial function.
# The human hepatocellular carcinoma cell line, HepG2 cells (ATCC HB-8065), were cultured in 10% FBS 1% L-Glu MEM at 37 °C in a humidified atmosphere of 5% CO2. Prior to RNA extraction cells were treated with either DMSO or REV-ERB agonist for 24 h. The C2C12 proliferating mouse myoblast cells (ATCC, CRL-1772) were cultured in 10% FBS DMEM at 37 °C in a humidified atmosphere of 5% CO2. Prior to RNA extraction cells were treated with either DMSO or REV-ERB agonist for 24 h. Prior to crystal violet cytotoxicity assay, cells were treated with either DMSO or REV-ERB agonist for 48 h.
# Mouse tissue was homogenized using a bullet blender. DNA/protein was removed by phase separation using BCP/chloroform. The supernatant (RNA containing fraction) was collected, and RNA was precipitated using isopropanol. The RNA pellets were washed with 75% ethanol and resolubilized in RNAse free water. […]
# REV-ERB regulated genes = tested on: REV-ERB regulated genes; design: method as in ref 17 re-assessed; ref 48; settings: RNA-seq data of ref 17 re-assessed; cited from earlier work
# [1] = tested on: proliferating C2C12 mouse myoblast cells; assay: cell viability by crystal violet staining; assay type: cell-based; settings: for cell viability (Fig. 2b source data): crystal violet, normalized to DMSO, single replicates; for reduction in cellular viability: proliferating C2C12 cells
# Procedure: as §1, §2, §3, §4
# [2] = molecular target: NCoR1-VP16 fusion protein (a fragment of the NCoR1 corepressor); assay: two-hybrid reporter assay (Gal4-FL REV-ERBα/NCoR1-VP16); settings: HEK293 cells with Gal4UAS luciferase reporter; read at the highest dose shared with WT, log [STL1267] (µM) about 0.4; parent: est. 49; read off a plot
Compound,"cell viability (Fig 2a source data) (HepG2 cells; HepG2, 1uM, listed as SR009)","cell viability (Fig 2a source data) (HepG2 cells; HepG2, 2uM, listed as SR909)","cell viability (Fig 2a source data) (HepG2 cells; HepG2, 5uM)","cell viability (Fig 2a source data) (HepG2 cells; HepG2, 10uM)","cell viability (Fig 2a source data) (HepG2 cells; HepG2, 20uM)","reduction in cell viability (HepG2 cells; HepG2 cells, 10 and 20 μM)",Bmal1 (Fig. 2c) expression (BMAL1 in HepG2 cells),REV-ERB regulated genes still regulated in Rev-erbα/β DKO hepatocytes (REV-ERB regulated genes),"cell viability (Fig. 2b source data) ([1]; C2C12, 1 uM)","cell viability (Fig. 2b source data) ([1]; C2C12, 2 uM)","cell viability (Fig. 2b source data) ([1]; C2C12, 5 uM)","cell viability (Fig. 2b source data) ([1]; C2C12, 10 uM)","cell viability (Fig. 2b source data) ([1]; C2C12, 20 uM)",reduction in cellular viability ([1]; 10 μM),reduction in cellular viability ([1]; 20 μM),response (Normalized RLU) [2]
"CCOC(=O)N1CCC(CN(Cc2ccc(Cl)cc2)Cc2ccc([N+](=O)[O-])s2)C1 (centres unmarked) [SR9009, reference compound]",97.2789 and 85.5104 and 113.189 and 114.805 and 107.077 and 107.33 and 98.8951 and 92.8847,100.006 and 84.3488 and 101.774 and 112.583 and 88.7935 and 85.3589 and 86.1671 and 96.3697,99.2992 and 90.5108 and 87.6823 and 102.582 and 76.621 and 82.8335 and 95.5616 and 87.3793,106.875 and 80.1566 and 109.199 and 93.9453 and 73.8936 and 70.661 and 84.7528 and 82.682,91.723 and 73.742 and 95.107 and 95.2585 and 84.7528 and 75.1058 and 92.3796 and 105.158,~ 10%,0.6576 and 0.6833 and 0.6229 and 0.6990,39%,96.141 and 87.1558 and 95.0006 and 119.571 and 103.64,73.3671 and 83.0434 and 96.4175 and 95.0006 and 98.2145 and 106.301 and 112.141 and 107.994,97.5233 and 96.3829 and 104.02 and 104.331 and 114.111 and 109.239 and 109.791 and 104.884,81.4883 and 68.2525 and 56.4681 and 49.4183 and 62.032 and 78.1707 and 78.3435 and 86.2228,29.4436 and 32.6575 and 37.392 and 34.0399 and 33.6597 and 55.6387 and 64.9695 and 68.7363,~ 25%,~ 50%,–
full length human REV-ERBα fused to the GAL4 DNA-binding domain (wild type) (from UniProt P20393) F488A,–,–,–,–,–,–,–,–,–,–,–,–,–,–,–,73
full length human REV-ERBα fused to the GAL4 DNA-binding domain (wild type) (from UniProt P20393) F443A,–,–,–,–,–,–,–,–,–,–,–,–,–,–,–,7
